Laboratory results: ChEMBL document CHEMBL1136597, “A structure-permeability study of small drug-like molecules” (Bioorg Med Chem Lett, 2003)

Experiment: Distribution coefficient of octanol and phosphate buffered saline at pH 7.4
Format: physicochemical
Details: read-out: Log Doct/PBS

SMILES	logD
Nc1cccc(Cn2cnc3ccccc32)c1	1.92
CS(=O)(=O)Nc1cccc(Cn2cnc3ccccc32)c1	2.08
O=S(=O)(O)c1ccc(Cn2cnc3ccccc32)cc1	1.78
O=C(O)c1ccc(Cn2ccnc2)cc1	-2.1
N=C(N)c1cccc(Cc2ncccn2)c1	-1.03
O=C(O)c1cccc(Cn2cnc3ccccc32)c1	-0.72

Experiment: Partition coefficient (logD7.4) measured using octanol and PBS at pH7.4
Format: physicochemical
Details: pH 7.4, read-out: LogD7.4

SMILES	logD
c1cnc(Cc2cccc(-c3nn[nH]n3)c2)nc1	-1.28
NC(=O)c1cccc(Cn2ccnc2)c1	-0.01
NCc1cccc(Cn2cnc3ccccc32)c1	0.21
N#Cc1cccc(Cn2cnc3ccccc32)c1	2.47
NS(=O)(=O)c1ccc(Cn2cnc3ccccc32)cc1	1.04
NC(=O)c1cccc(Cc2ncccn2)c1	0.28
N#Cc1cccc(Cn2ccnc2)c1	1.01
N#Cc1cccc(Cn2cccn2)c1	1.74
O=C(O)Cc1ccc(Cn2cnc3ccccc32)cc1	-1.13
O=C(O)c1ccc(Cn2cnc3ccccc32)cc1	-0.61
O=C(O)c1cccc(Cc2ncccn2)c1	-1.98
O=C(O)Cc1ccc(Cn2ccnc2)cc1	-2.37
O=C(O)c1cccc(Cn2cccn2)c1	-1.62
O=C(O)Cc1ccc(Cn2cccn2)cc1	-1.8
NC(=O)c1cccc(Cn2cnc3ccccc32)c1	1.7
c1cc(Cn2cnc3ccccc32)cc(-c2nn[nH]n2)c1	0.27
NC(=O)c1cccc(Cn2cccn2)c1	0.71
c1ccc(Cn2cnc3ccccc32)cc1	2.91
N#Cc1cccc(Cc2ncccn2)c1	1.46
NCc1cccc(Cc2ncccn2)c1	-1.11
c1ccc(Cn2ccnc2)cc1 [BENZYLIMIDAZOLE]	1.78
NCc1cccc(Cn2cccn2)c1	-0.77
O=C(O)c1ccc(Cn2cccn2)cc1	-1.65
O=C(O)c1ccc(Cc2ncccn2)cc1	-2.2

Experiment: Permeability directional ratio (PB-A/PA-B) in Caco-2 cell
Format: ADME, cell-based
Details: human, read-out: PDR

SMILES	efflux ratio
c1ccc2c(c1)ncn2Cc1ccc(-c2nn[nH]n2)cc1	129
c1cnc(Cc2cccc(-c3nn[nH]n3)c2)nc1	20
O=S(=O)(O)c1ccc(Cn2cnc3ccccc32)cc1	7
O=C(O)c1ccc(Cn2ccnc2)cc1	1
c1ccc(-c2nn[nH]n2)c(Cn2cnc3ccccc32)c1	180
c1cc(Cn2cnc3ccccc32)cc(-c2nn[nH]n2)c1	145
N=C(N)c1cccc(Cc2ncccn2)c1	3
O=C(O)c1cccc(Cn2cnc3ccccc32)c1	3
